Literature values in patent publication US7996156B2, “Methods for predicting properties of molecules” (priority 2002, dated 2011).
Like-named read-outs stand apart in the source and are kept apart here.

Columns and labels:
[1] = target: T1, aryl hydrocarbon receptor (AhR) (Rattus norvegicus, UniProt P41738); conditions: cited from earlier work; for Experimental Log EC50: rodent hepatic cytosol
T1 construct: rodent hepatic cytosol as a source of the AhR; from tissue; host or cells: rodent hepatic cytosol
T1 sequence (P41738 10-853): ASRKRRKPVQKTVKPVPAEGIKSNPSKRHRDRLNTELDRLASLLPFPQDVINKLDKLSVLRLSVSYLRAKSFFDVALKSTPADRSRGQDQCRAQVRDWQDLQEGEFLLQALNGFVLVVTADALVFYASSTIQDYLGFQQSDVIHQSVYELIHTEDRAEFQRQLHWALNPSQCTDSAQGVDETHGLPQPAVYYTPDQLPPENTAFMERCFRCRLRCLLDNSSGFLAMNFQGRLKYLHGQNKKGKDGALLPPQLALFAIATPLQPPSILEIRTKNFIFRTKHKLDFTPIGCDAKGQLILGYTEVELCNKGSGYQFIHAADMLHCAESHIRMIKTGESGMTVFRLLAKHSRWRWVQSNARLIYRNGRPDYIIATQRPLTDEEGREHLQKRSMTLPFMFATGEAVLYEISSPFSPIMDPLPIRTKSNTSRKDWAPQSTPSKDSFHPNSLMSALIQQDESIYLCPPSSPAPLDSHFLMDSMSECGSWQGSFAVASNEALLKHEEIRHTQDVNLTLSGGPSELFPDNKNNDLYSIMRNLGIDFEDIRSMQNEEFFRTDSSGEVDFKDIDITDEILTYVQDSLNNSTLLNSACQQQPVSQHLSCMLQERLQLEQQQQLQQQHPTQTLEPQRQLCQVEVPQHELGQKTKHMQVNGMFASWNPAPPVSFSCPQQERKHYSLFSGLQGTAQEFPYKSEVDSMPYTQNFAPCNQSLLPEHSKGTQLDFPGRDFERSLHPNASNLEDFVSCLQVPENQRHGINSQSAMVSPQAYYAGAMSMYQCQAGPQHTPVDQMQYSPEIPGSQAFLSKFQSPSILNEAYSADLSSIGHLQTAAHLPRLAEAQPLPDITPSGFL

estrogen receptor = conditions: cited from earlier work
[2] = log scale, competitive binding, [3H]-2,3,7,8-tetrachlorodioxin, previously reported training data
[3] = previously reported competitive in vitro AhR binding, [3H]-2,3,7,8-tetrachlorodioxin radioligand, values are log EC50
[4] = experimental values of Waller et al. and Kuiper et al. external test sets, normalized to NCTR data

Row | Compound | Experimental Log EC50 [1, 2] | Experimental Log EC50 [1, 3] | Normalized log (RBA) (estrogen receptor; [4]) | binding to the AhR (in words) [1] | Normalized log (RBA) (estrogen receptor)
1 | Clc1cc2c(cc1Cl)Oc1c(Cl)c(Cl)c(Cl)c(Cl)c1O2 [1,2,3,4,7,8-hexaCl-dibenzodioxin] | −7.55 | −7.55 | – | – | –
2 | Clc1cc2oc3c(Cl)c(Cl)c(Cl)c(Cl)c3c2cc1Cl [1,2,3,4,7,8-hexaCl-dibenzofuran] | −7.64 | −7.64 | – | – | –
3 | Clc1ccc2c(c1)Oc1c(Cl)c(Cl)c(Cl)c(Cl)c1O2 [1,2,3,4,7-pentaCl-dibenzodioxin] | −6.19 | −6.19 | – | – | –
4 | Clc1c(Cl)c(Cl)c2c(c1Cl)Oc1ccccc1O2 [1,2,3,4-tetraCldibenzodioxin] | −6.88 | −6.88 | – | – | –
5 | Clc1cc2c(oc3cc(Cl)c(Cl)c(Cl)c32)c(Cl)c1Cl [1,2,3,6,7,8-hexaCl-dibenzofuran] | −7.57 | −7.57 | – | – | –
6 | Clc1cc2oc3c(Cl)cccc3c2c(Cl)c1Cl [1,2,3,6-tetraCl-dibenzofuran] | −7.46 | −7.46 | – | – | –
7 | Clc1cc2c(cc1Cl)Oc1c(cc(Cl)c(Cl)c1Cl)O2 [1,2,3,7,8-pentaCl-dibenzodioxin] | −8.10 | −8.10 | – | – | –
8 | Clc1cc2oc3cc(Cl)c(Cl)c(Cl)c3c2cc1Cl [1,2,3,7,8-pentaCl-dibenzofuran] | −8.12 | −8.12 | – | – | –
9 | Clc1cc(Cl)c2c(c1)oc1cc(Cl)c(Cl)c(Cl)c12 [1,2,3,7,9-pentaCl-dibenzofuran] | −7.40 | −7.40 | – | – | –
10 | Clc1ccc2c(c1)oc1cc(Cl)c(Cl)c(Cl)c12 [1,2,3,7-tetraCl-dibenzofuran] | −7.96 | −7.96 | – | – | –
11 | Clc1cc2c(oc3c(Cl)cc(Cl)c(Cl)c32)c(Cl)c1Cl [1,2,4,6,7,8-hexaCl-dibenzofuran] | −6.08 | −6.08 | – | – | –
12 | Clc1cc2c(cc1Cl)Oc1c(Cl)c(Cl)cc(Cl)c1O2 [1,2,4,7,8-pentaCl-dibenzodioxin] | −6.96 | −6.96 | – | – | –
13 | Clc1cc(Cl)c2c(c1)oc1c(Cl)cc(Cl)c(Cl)c12 [1,2,4,7,9-pentaCl-dibenzofuran] | −5.70 | −5.70 | – | – | –
14 | Clc1ccc2oc3c(Cl)cc(Cl)c(Cl)c3c2c1 [1,2,4,8-tetraCl-dibenzofuran] | −6.00 | −6.00 | – | – | –
15 | Clc1cc(Cl)c2c(c1Cl)Oc1ccccc1O2 [1,2,4-triCl-dibenzodioxin] | −5.88 | −5.88 | – | – | –
16 | Clc1cc2oc3c(Cl)c(Cl)cc(Cl)c3c2cc1Cl [1,3,4,7,8-pentaCl-dibenzofuran] | −7.70 | −7.70 | – | – | –
17 | Clc1cc(Cl)c2c(c1)Oc1cc(Cl)c(Cl)cc1O2 [1,3,7,8-tetraCl-dibenzodioxin] | −7.10 | −7.10 | – | – | –
18 | Clc1cccc2c1Oc1ccccc1O2 [1-Cl-dibenzodioxin] | −5.00 | −5.00 | – | – | –
19 | Clc1ccc(Cl)c(-c2cc(Cl)ccc2Cl)c1 [2,2′5,5′-tetraCl-biphenyl] | – | – | −2.67 | – | –
20 | Oc1c(Cl)cc(Cl)c(Cl)c1-c1cc(Cl)cc(Cl)c1Cl [2,2′,3,3′,5,5′-heaxCl-6′-biphenylol] | – | – | −2.69 | – | –
21 | Oc1cc(Cl)c(-c2c(Cl)ccc(Cl)c2Cl)c(Cl)c1Cl [2,2′,3,3′,6,6′-hexaCl-4-biphenylol] | – | – | −2.74 | – | –
22 | Oc1cc(Cl)c(-c2c(Cl)cc(Cl)cc2Cl)c(Cl)c1Cl [2,2′,3,4′,6,6′-hexaCl-4-biphenylol] | – | – | −2.60 | – | –
23 | Oc1cc(Cl)c(-c2c(Cl)cccc2Cl)c(Cl)c1Cl [2,2′,3,6,6′-pentaCl-4-biphenylol] | – | – | −1.97 | – | –
24 | Clc1cc(Cl)c(-c2c(Cl)cc(Cl)cc2Cl)c(Cl)c1 [2,2′,4,4′,6,6′-hexaCl-biphenyl] | – | – | −1.87 | – | –
25 | Clc1ccc(-c2cc(Cl)c(Cl)c(Cl)c2Cl)cc1Cl [2,3,3′,4,4′,5-hexaCl-biphenyl] | −6.30 | −6.30 | – | – | –
26 | Clc1ccc(-c2ccc(Cl)c(Cl)c2Cl)cc1Cl [2,3,3′,4,4′-pentaCl-biphenyl] | −6.15 | −6.15 | – | – | –

Row | Compound | Experimental Log EC50 [1, 2] | Experimental Log EC50 [1, 3] | Normalized log (RBA) (estrogen receptor; [4]) | binding to the AhR (in words) [1] | Normalized log (RBA) (estrogen receptor)
27 | Clc1ccc(-c2cc(Cl)c(Cl)c(Cl)c2Cl)cc1 [2,3,4,4′,5-pentaCl-biphenyl] | −6.38 | −6.38 | – | – | –
28 | Clc1ccc(-c2ccc(Cl)c(Cl)c2Cl)cc1 [2,3,4,4′-tetraCl-biphenyl] | −5.55 | −5.55 | – | – | –
29 | Clc1cc(-c2ccccc2)c(Cl)c(Cl)c1Cl [2,3,4,5-tetraCl-biphenyl] | −4.85 | −4.85 | – | – | –
30 | Clc1cc2c(oc3c(Cl)c(Cl)c(Cl)cc32)c(Cl)c1Cl [2,3,4,6,7,8-hexaCl-dibenzofuran] | −8.33 | −8.33 | – | – | –
31 | Clc1cc2c(oc3c(Cl)cccc32)c(Cl)c1Cl [2,3,4,6-tetraCl-dibenzofuran] | −7.46 | −7.46 | – | – | –
32 | Clc1cc2oc3c(Cl)c(Cl)c(Cl)cc3c2cc1Cl [2,3,4,7,8-pentaCl-dibenzofuran] | −8.82 | −8.82 | – | – | –
33 | Clc1cc(Cl)c2c(c1)oc1c(Cl)c(Cl)c(Cl)cc12 [2,3,4,7,9-pentaCl-dibenzofuran] | −7.70 | −7.70 | – | – | –
34 | Oc1ccc(-c2c(Cl)c(Cl)c(O)c(Cl)c2Cl)cc1 [2,3,5,6,tetraCl-4,4′-biphenyldiol] | – | – | −2.18 | – | –
35 | Clc1cc2c(cc1Cl)Oc1c(ccc(Cl)c1Cl)O2 [2,3,6,7-tetraCl-dibenzodioxin] | −7.79 | −7.79 | – | – | –
36 | Clc1cc(Cl)c2oc3cc(Cl)c(Cl)cc3c2c1 [2,3,6,8-tetraCldibenzofuran] | −7.66 | −7.66 | – | – | –
37 | Clc1cc2c(cc1Cl)Oc1c(Cl)cccc1O2 [2,3,6-triCl-dibenzodioxin] | −7.66 | −7.66 | – | – | –
38 | Clc1cc2c(cc1Cl)Oc1cc(Cl)c(Cl)cc1O2 [2,3,7,8-tetraCl-dibenzodioxin] | −9.00 | −9.00 | – | strong binder | –
39 | Clc1cc2oc3cc(Cl)c(Cl)cc3c2cc1Cl [2,3,7,8-tetraCl-dibenzofuran] | −8.60 | −8.60 | – | strong binder | –
40 | Clc1ccc2c(c1)Oc1cc(Cl)c(Cl)cc1O2 [2,3,7-triCl-dibenzodioxin] | −8.15 | −8.15 | – | – | –
41 | Clc1cc(Cl)c(-c2cc(Cl)c(Cl)c(Cl)c2)cc1Cl [2,3′,4,4′,5,5′-hexaCl-biphenyl] | −5.80 | −5.80 | – | – | –
42 | Clc1ccc(-c2cc(Cl)c(Cl)cc2Cl)cc1Cl [2,3′,4,4′,5-pentaCl-biphenyl] | −6.04 | −6.04 | – | – | –
43 | Oc1ccc(-c2c(Cl)cc(Cl)cc2Cl)cc1 [2,4,6,-triCl-4′-biphenylol] | – | – | −0.16 | – | –
44 | Oc1ccc(-c2c(Cl)cccc2Cl)cc1 [2,6-dichloro-4′-biphenylol] | – | – | −1.11 | – | –
45 | Clc1ccc2c(c1)Oc1cc(Cl)ccc1O2 [2,8-diCl-dibenzodioxin] | −6.49 | −6.49 | – | – | –
46 | Oc1ccc(-c2ccc(O)cc2Cl)cc1 [2-Cl-4,4′-biphenyldiol] | – | – | −0.61 | – | –
47 | Clc1ccc(-c2ccc(Cl)c(Cl)c2Cl)cc1Cl [2′,3′4,4′,5-pentaCl-biphenyl] | −5.85 | −5.85 | – | – | –
48 | Clc1ccc(-c2cc(Cl)c(Cl)c(Cl)c2)cc1Cl [3,3′,4,4′,5-pentaCl-biphenyl] | −7.92 | −7.92 | – | – | –
49 | Clc1ccc(-c2ccc(Cl)c(Cl)c2)cc1Cl [3,3′,4,4′-tetraCl-biphenyl] | −7.37 | −7.37 | – | – | –
50 | CC(C)(C)c1cccc(O)c1 [3-tert-butylphenol] | – | – | −4.82 | – | –
51 | C[C@]12CC[C@H]3[C@@H](CC=C4C[C@@H](O)CC[C@@]43C)[C@@H]1CC[C@@H]2O [5-Androstenediol] | – | – | – | – | −0.49
52 | Clc1c(Cl)c(Cl)c2c(c1Cl)Oc1c(Cl)c(Cl)c(Cl)c(Cl)c1O2 [octaCl-dibenzodioxin] | −6.00 | −6.00 | – | – | –
